Reference: US10836789B2, “Inhibitors of glucocorticoid receptor” (ORIC Pharmaceuticals, Inc., priority 2016, dated 2020)

tested on: AR; experiment: AR agonism assay in LNAR reporter cell line; format: cell-based; conditions: LNAR cells (overexpressed AR, 4XARE-Luc), 10% CSS, 18-24 hrs; Mifepristone maximum response set to 1
Description: Example B: In Vitro AR Agonism Assay
The AR agonism assay was done in the LNAR reporter cell line which has overexpressed AR and 4XARE-Luc genes. This cell line is sensitive to even minor partial AR agonism activity in hormone-deprived media (CSS). The assays were done in RPMI (without phenol red)+10% CSS using 6000 LNAR cells/well in 384-well plates and compounds were incubated with cells in […] incubator for 18-24 hrs. OneGlo reagent (25 uL/well) was added and plates were read with luminometer within 3 minutes.
To gauge the AR partial agonism activity, Mifepristone is included as a standard in the assay. AR agonism assay results are quantified by determining the ratio of the maximum response of individual compounds to the maximum response of Mifepristone (arbitrarily set to 1). Values of Table 4 are reported as Relative Maximum Response to Mifepristone. This general trend of AR agonism was shown for the class of compounds described herein.

SMILES	Relative Maximum Response to Mifepristone
CC(C)N(C)c1ccc([C@H]2C[C@@]3(C)[C@@H](CC(C)[C@@]3(O)C#CC(C)(C)C)[C@@H]3CCC4=CC(=O)CC[C@@H]4[C@H]32)cc1 (single isomer, unassigned) [Compound 8]	A (A: ≤ 0.4)
CC(C)(C)C#C[C@]1(O)CC[C@H]2[C@@H]3CCC4=CC(=O)CC[C@@H]4[C@H]3[C@@H](c3ccc(N4CCCC4)cc3)C[C@@]21C [Compound 1, (8R,9S,10R,11S,13S,14S,17S)-17-(3,3-Dimethylbut-1-yn-1-yl)-17-hydroxy-13-methyl-11-(4-(pyrrolidin-1-yl)phenyl)-1,2,6,7,8,9,10,11,12,13,14,15,16,17-tetradecahydro-3H-cyclopenta[a]phenanthren-3-one]	A (A: ≤ 0.4)

same assay, conditions: in concentrations as low as 10 nM

SMILES	partial AR agonism
CC#C[C@]1(O)CC[C@H]2[C@@H]3CCC4=CC(=O)CCC4=C3[C@@H](c3ccc(N(C)C)cc3)C[C@@]21C [Mifepristone, reference compound]	strong partial AR agonism

target: T1, GR (Homo sapiens, UniProt P04150); experiment: GR luciferase antagonist assay (CHO/GR/MMTV Luciferase cells); format: cell-based; conditions: 10 nM Dexamethasone final, 16-18 h
T1 construct: expressed in transfected cells; host or cells: CHO cells carrying GR and an MMTV-luciferase reporter
T1 sequence (P04150 1-777): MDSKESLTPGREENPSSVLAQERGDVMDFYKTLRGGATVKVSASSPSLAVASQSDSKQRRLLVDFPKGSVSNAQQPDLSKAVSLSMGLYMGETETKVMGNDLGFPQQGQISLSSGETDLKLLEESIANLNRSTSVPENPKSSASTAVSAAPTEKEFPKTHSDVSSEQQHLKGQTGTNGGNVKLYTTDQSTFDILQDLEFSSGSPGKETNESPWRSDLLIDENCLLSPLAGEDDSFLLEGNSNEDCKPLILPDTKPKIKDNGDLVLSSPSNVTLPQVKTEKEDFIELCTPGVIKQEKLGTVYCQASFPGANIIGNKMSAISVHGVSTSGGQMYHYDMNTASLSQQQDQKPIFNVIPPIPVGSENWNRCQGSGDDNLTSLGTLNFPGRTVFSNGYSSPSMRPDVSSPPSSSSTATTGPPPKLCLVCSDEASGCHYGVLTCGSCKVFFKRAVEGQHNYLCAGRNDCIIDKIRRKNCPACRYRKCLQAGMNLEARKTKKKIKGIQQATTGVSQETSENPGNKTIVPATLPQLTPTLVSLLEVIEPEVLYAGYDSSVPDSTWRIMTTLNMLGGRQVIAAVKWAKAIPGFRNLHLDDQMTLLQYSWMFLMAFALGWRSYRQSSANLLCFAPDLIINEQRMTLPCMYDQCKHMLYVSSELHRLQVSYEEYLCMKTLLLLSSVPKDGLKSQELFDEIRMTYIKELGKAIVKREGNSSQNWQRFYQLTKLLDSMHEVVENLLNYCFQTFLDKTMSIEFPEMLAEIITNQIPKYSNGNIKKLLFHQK
Description: Example A: […] GR Luciferase Assay Cell Line: CHO/GR/MMTV Luciferase Culture Media: DMEM (with phenol red)+10% FBS Assay Media: DMEM (without phenol red)+10% CSS A 1×10 cm plate of cells was split into 2×15 cm plates in Assay Media (CSS). After 4 days, the cells in the Assay Media were collected and counted. Antagonist Assay: 1.5×10^4 cells per well were plated in a 384-well white walled TC plate in 20 ul of Assay Media containing 12.5 nM Dexamethasone (final concentration=10 nM). The plates were covered with film to avoid evaporation and placed in a TC incubator. Media/drug dilutions were prepared in Assay Media in 96-well sterile plates. 100 ul of Assay Media was distributed in aliquots into 96-well plates with an 8-Channel pipette (20-200 ul). 0.5 ul of 1000× concentration of compounds were added to the plates with 8-Channel pipette (0.5-10 ul). The plates were shaken for 15 seconds to mix. The film was removed from the 384-well plates with assay cells. 5 ul of media/drug dilutions were added to appropriate wells. The plates were covered with film to avoid evaporation and placed in a TC incubator overnight. After 16-18 h in the incubator, the plates were removed and sat at room temperature for 10 minutes to equilibrate. The Reagent Dispenser was setup to distribute 25 ul aliquots of OneGlo Luciferase Reagent (at room temperature) to each well of the 384-well plate using standard cassette. After OneGlo was added to the plates, the plates were shaken briefly, then incubated in the dark at room temperature for about 3 minutes. The plates were read using a Tecan or Promega luminometer. The ability of the compounds disclosed herein to inhibit GR activity was quantified and the respective IC50 value was determined. Table 3 provides the cellular IC50 values of various substituted steroidal compounds disclosed herein.

SMILES	IC50
CC(C)N(C)c1ccc([C@H]2C[C@@]3(C)[C@@H](CC(C)[C@@]3(O)C#CC(C)(C)C)[C@@H]3CCC4=CC(=O)CC[C@@H]4[C@H]32)cc1 (single isomer, unassigned) [Compound 8]	≤ 100 nM
CC(C)(C)C#C[C@]1(O)CC[C@H]2[C@@H]3CCC4=CC(=O)CC[C@@H]4[C@H]3[C@@H](c3ccc(N4CCCC4)cc3)C[C@@]21C [Compound 1, (8R,9S,10R,11S,13S,14S,17S)-17-(3,3-Dimethylbut-1-yn-1-yl)-17-hydroxy-13-methyl-11-(4-(pyrrolidin-1-yl)phenyl)-1,2,6,7,8,9,10,11,12,13,14,15,16,17-tetradecahydro-3H-cyclopenta[a]phenanthren-3-one]	≤ 100 nM
CC(C)(C)C#C[C@]1(O)CC[C@H]2[C@@H]3CCC4=CC(=O)CC[C@@H]4[C@H]3[C@@H](c3ccc4c(c3)OCCO4)C[C@@]21C [Compound 3, (8R,9S,10R,11S,13S,14S,17S)-11-(2,3-Dihydrobenzo[b][1,4]dioxin-6-yl)-17-(3,3-dimethylbut-1-yn-1-yl)-17-hydroxy-13-methyl-1,2,6,7,8,9,10,11,12,13,14,15,16,17-tetradecahydro-3H-cyclopenta[a]phenanthren-3-one]	≤ 100 nM
CC(C)(C)C#C[C@]1(O)CC[C@H]2[C@@H]3CCC4=CC(=O)CC[C@@H]4[C@H]3[C@@H](c3ccc4c(c3)OCO4)C[C@@]21C [Compound 5, (8R,9S,10R,11S,13S,14S,17S)-11-(Benzo[d][1,3]dioxol-5-yl)-17-(3,3-dimethylbut-1-yn-1-yl)-17-hydroxy-13-methyl-1,2,6,7,8,9,10,11,12,13,14,15,16,17-tetradecahydro-3H-cyclopenta[a]phenanthren-3-one]	≤ 100 nM
CCN(CC)c1ccc([C@H]2C[C@@]3(C)[C@@H](CC[C@@]3(O)C#CC(C)(C)C)[C@@H]3CCC4=CC(=O)CC[C@@H]4[C@H]32)cc1 [Compound 9, (8R,9S,10R,11S,13S,14S,17S)-11-(4-(Diethylamino)phenyl)-17-(3,3-dimethylbut-1-yn-1-yl)-17-hydroxy-13-methyl-1,2,6,7,8,9,10,11,12,13,14,15,16,17-tetradecahydro-3H-cyclopenta[a]phenanthren-3-one]	≤ 100 nM
CCC#C[C@]1(O)CC[C@H]2[C@@H]3CCC4=CC(=O)CC[C@]4(C)[C@H]3[C@@H](c3ccc(NC)cc3)C[C@@]21C [Compound 12]	> 100 nM
CC(C)(C)C#C[C@]1(O)CC[C@H]2[C@@H]3CCC4=CC(=O)CC[C@@H]4[C@H]3[C@@H](c3ccc(N)cc3)C[C@@]21C [Compound 13, (8R,9S,10R,11S,13S,14S,17S)-11-(4-Aminophenyl)-17-(3,3-dimethylbut-1-yn-1-yl)-17-hydroxy-13-methyl-1,2,6,7,8,9,10,11,12,13,14,15,16,17-tetradecahydro-3H-cyclopenta[a]phenanthren-3-one]	≤ 100 nM
CC(C)N(C)c1ccc([C@H]2C[C@@]3(C)[C@@H](CC[C@@]3(O)C#CC(C)(C)C)[C@@H]3CCC4=CC(=O)CC[C@@H]4[C@H]32)cc1F [Compound 15, (8R,9S,10R,11S,13S,14S,17S)-17-(3,3-Dimethylbut-1-yn-1-yl)-11-(3-fluoro-4-(isopropyl(methyl)amino)phenyl)-17-hydroxy-13-methyl-1,2,6,7,8,9,10,11,12,13,14,15,16,17-tetradecahydro-3H-cyclopenta[a]phenanthren-3-one]	≤ 100 nM
CC(C)N(C)c1ccc([C@H]2C[C@@]3(C)[C@@H](CC[C@@]3(O)C#CC(C)(C)C)[C@@H]3CCC4=CC(=O)CC[C@]4(C)[C@H]32)cc1 [Compound 16]	> 100 nM
CC#C[C@]1(O)CC[C@H]2[C@@H]3CCC4=CC(=O)CC[C@]4(C)[C@H]3[C@@H](c3ccc(NC)cc3)C[C@@]21C [Compound 23]	> 100 nM
CC(=O)N1CCN(c2ccc([C@H]3C[C@@]4(C)[C@@H](CC[C@@]4(O)C#CC(C)(C)C)[C@@H]4CCC5=CC(=O)CC[C@@H]5[C@H]43)cc2)CC1 [Compound 24]	≤ 100 nM
CC#C[C@]1(O)CC[C@H]2[C@@H]3CCC4=CC(=O)CC[C@]4(C)[C@H]3[C@@H](c3ccc(N)cc3)C[C@@]21C [Compound 26, (8S,9R,10R,11S,13S,14S,17S)-11-(4-Aminophenyl)-17-hydroxy-10,13-dimethyl-17-(prop-1-yn-1-yl)-1,2,6,7,8,9,10,11,12,13,14,15,16,17-tetradecahydro-3H-cyclopenta[a]phenanthren-3-one]	> 100 nM
CC(C)(C)C#C[C@]1(O)CC[C@H]2[C@@H]3CCC4=CC(=O)CC[C@@H]4[C@H]3[C@@H](c3ccc(N4CCN(S(C)(=O)=O)CC4)cc3)C[C@@]21C [Compound 27]	≤ 100 nM
C[C@]12CCC(=O)C=C1CC[C@@H]1[C@@H]2[C@@H](c2ccc(N3CCCC3)cc2)C[C@@]2(C)[C@H]1CC[C@@]2(O)C#CC1CC1 [Compound 28]	> 100 nM
C[C@]12CCC(=O)C=C1CC[C@@H]1[C@@H]2[C@@H](c2ccc(N3CCCC3)cc2)C[C@@]2(C)[C@H]1CC[C@@]2(O)C#CC(F)(F)F [Compound 29]	≤ 100 nM
CC#C[C@]1(O)CC[C@H]2[C@@H]3CCC4=CC(=O)CC[C@]4(C)[C@H]3[C@@H](c3ccc(NC(C)C)cc3)C[C@@]21C [Compound 30, (8S,9R,10R,11S,13S,14S,17S)-17-Hydroxy-11-(4-(isopropylamino)phenyl)-10,13-dimethyl-17-(prop-1-yn-1-yl)-1,2,6,7,8,9,10,11,12,13,14,15,16,17-tetradecahydro-3H-cyclopenta[a]phenanthren-3-one]	> 100 nM
CC#C[C@]1(O)CC[C@H]2[C@@H]3CCC4=CC(=O)CC[C@]4(C)[C@H]3[C@@H](c3ccc(-n4cccc4)cc3)C[C@@]21C [Compound 31, (8S,9R,10R,11S,13S,14S,17S)-11-(4-(1H-Pyrrol-1-yl)phenyl)-17-hydroxy-10,13-dimethyl-17-(prop-1-yn-1-yl)-1,2,6,7,8,9,10,11,12,13,14,15,16,17-tetradecahydro-3H-cyclopenta[a]phenanthren-3-one]	≤ 100 nM
